Source: the NIST ThermoML archive (doi:10.1016/j.jct.2019.01.024)

Assay: mn = molality of the nth substance listed, in mol/kg
Settings: 101 kPa, Liquid; for viscosity: Falling or rolling sphere viscometry; for speed of sound: Frequency=3 MHz, Single path-length method; for mass density: Vibrating tube method

NNC(=O)c1ccncc1 [isonicotinic acid hydrazide] + O
Settings	mass density [kg/m3]	speed of sound [m/s]	viscosity [mPa·s]
293.15 K, m1 = 0.0255	999.11	1485.3	1.006
293.15 K, m1 = 0.0494	999.92	1486.9	1.012
293.15 K, m1 = 0.0754	1000.8	1488.6	1.018
293.15 K, m1 = 0.1	1001.64	–	1.024
293.15 K, m1 = 0.1253	1002.5	1491.8	1.03
293.15 K, m1 = 0.15	1003.35	1493.4	1.037
293.15 K, m1 = 0.2002	1005.07	1496.5	1.049
293.15 K, m1 = 0.2492	1006.75	1499.4	1.062
293.15 K, m1 = 0.3001	1008.5	1502.4	1.075
293.15 K, m1 = 0.3489	1010.18	1505.1	1.088
293.15 K, m1 = 0.4003	1011.96	1507.9	1.102
298.15 K, m1 = 0.0255	997.93	1498.6	0.8937
298.15 K, m1 = 0.0494	998.74	1500.2	0.8984
298.15 K, m1 = 0.0754	999.61	1501.9	0.9036
298.15 K, m1 = 0.1	1000.45	–	0.9086
298.15 K, m1 = 0.1253	1001.3	1505.1	0.9138
298.15 K, m1 = 0.15	1002.14	1506.6	0.9191
298.15 K, m1 = 0.2002	1003.84	1509.7	0.9298
298.15 K, m1 = 0.2492	1005.51	1512.6	0.9401
298.15 K, m1 = 0.3001	1007.25	1515.6	0.951
298.15 K, m1 = 0.3489	1008.91	1518.4	0.9616
298.15 K, m1 = 0.4003	1010.67	1521.3	0.9729
303.15 K, m1 = 0.0255	996.53	1510.1	0.8001
303.15 K, m1 = 0.0494	997.34	1511.6	0.804
303.15 K, m1 = 0.0754	998.21	1513.3	0.8084
303.15 K, m1 = 0.1	999.03	–	0.8125
303.15 K, m1 = 0.1253	999.88	1516.4	0.8169
303.15 K, m1 = 0.15	1000.71	1517.9	0.8213
303.15 K, m1 = 0.2002	1002.4	1521	0.8301
303.15 K, m1 = 0.2492	1004.05	1523.9	0.8389
303.15 K, m1 = 0.3001	1005.77	1526.9	0.8482
303.15 K, m1 = 0.3489	1007.42	1529.7	0.8571
303.15 K, m1 = 0.4003	1009.16	1532.6	0.8661
308.15 K, m1 = 0.0255	994.92	1521.4	0.7213
308.15 K, m1 = 0.0494	995.72	1522.9	0.7246
308.15 K, m1 = 0.0754	996.58	1524.5	0.7282
308.15 K, m1 = 0.1	997.4	–	0.7317
308.15 K, m1 = 0.1253	998.25	1527.6	0.7353
308.15 K, m1 = 0.15	999.08	1529.1	0.7389
308.15 K, m1 = 0.2002	1000.75	1532.2	0.7463
308.15 K, m1 = 0.2492	1002.39	1535.1	0.7537
308.15 K, m1 = 0.3001	1004.1	1538.1	0.7612
308.15 K, m1 = 0.3489	1005.74	1540.9	0.7687
308.15 K, m1 = 0.4003	1007.46	1543.8	0.7765
313.15 K, m1 = 0.0255	993.1	1528.4	0.6545
313.15 K, m1 = 0.0494	993.89	1529.8	0.6572
313.15 K, m1 = 0.0754	994.75	1531.4	0.6602
313.15 K, m1 = 0.1	995.57	–	0.6632
313.15 K, m1 = 0.1253	996.41	1534.4	0.6663
313.15 K, m1 = 0.15	997.23	1535.8	0.6693
313.15 K, m1 = 0.2002	998.9	1538.8	0.6756
313.15 K, m1 = 0.2492	1000.53	1541.7	0.6818
313.15 K, m1 = 0.3001	1002.22	1544.6	0.6882
313.15 K, m1 = 0.3489	1003.84	1547.3	0.6944
313.15 K, m1 = 0.4003	1005.55	1550.2	0.7007
318.15 K, m1 = 0.0255	991.08	1534.5	0.5987
318.15 K, m1 = 0.0494	991.87	1535.9	0.6009
318.15 K, m1 = 0.0754	992.73	1537.4	0.6034
318.15 K, m1 = 0.1	993.54	–	0.6058
318.15 K, m1 = 0.1253	994.38	1540.3	0.6084
318.15 K, m1 = 0.15	995.19	1541.7	0.611
318.15 K, m1 = 0.2002	996.85	1544.5	0.6163
318.15 K, m1 = 0.2492	998.46	1547.3	0.6215
318.15 K, m1 = 0.3001	1000.14	1550.2	0.6268
318.15 K, m1 = 0.3489	1001.75	1552.9	0.6321
318.15 K, m1 = 0.4003	1003.44	1555.7	0.6375

O [water] + NNC(=O)c1ccncc1
m2 = 0
Settings	mass density [kg/m3]	speed of sound [m/s]	viscosity [mPa·s]
293.15 K	–	1483.6	1.002
298.15 K	–	–	0.8903
303.15 K	–	1508.4	0.7973
308.15 K	994.07	–	0.719
313.15 K	–	1526.8	0.6526
318.15 K	–	1533	0.5972
